Test results taken from patent US20250250241A1, “COMPOUND, PREPARATION AND USE THEREOF IN RUBBER BLENDS AND VEHICLE TIRES, AS AN ANTI-AGING AGENT, ANTIOXIDANT, ANTIOXIDANT AND/OR COLORING AGENT” (Continental Reifen Deutschland GmbH, priority 2022, published 2025).

Assay: Measurement of oxidation induction time (OIT) by DSC
Assay type: physicochemical
Conditions: with liquid polyisoprene LIR-50, DSC; for Time until onset of oxidation (oxidation induction time) at 150° C.: isothermal 150° C., experiments terminated after 900 minutes; for Time until onset of oxidation (oxidation induction time) at 150° C. / Time until onset of oxidation (oxidation induction time) at 165° C.: O2 atmosphere; for Time until onset of oxidation (oxidation induction time) at 165° C.: isothermal 165° C.; for Time until onset of oxidation (oxidation induction time) at 180° C.: isothermal 180° C., O2 atmosphere 50 ml/min
Method: Measurement of Oxidation Induction Time (OIT)
The compound of formula III) was investigated under laboratory conditions for its potential protective effect as an aging stabilizer by measurement of the oxidation induction time.
To this end the compounds of formula III) and 6PPD, in each case together with a polymer (liquid synthetic polyisoprene (IR), LIR-50, Kuraray, weight average molecular weight distribution Mw=54 000 g/mol, glass transition temperature Tg=−63° C.), were heated at constant temperature at three different temperatures (180° C.; 165° C.; 150° C.) until onset of oxidation.
Heating to 180° C. was carried out as follows: • Starting temperature 35° C., heating to 170° C. at a heating rate of 20 K/min (kelvin per minute), heating to 180° C. at a heating rate of 1 K/min; purge gas: nitrogen (N2), volume flow 50 ml/min).
The specimen was kept under isothermal conditions at 180° C. under an N2 atmosphere for 5 minutes and the atmosphere was then switched to an O2 atmosphere (volume flow 50 ml/min).
The heating to 165° C. was carried out analogously by first heating to 155° C. at a heating rate of 20 K/min (kelvin per minute) and then heating to 165° C. at a heating rate of 1 K/min.
The heating to 150° C. was carried out analogously by first heating to 140° C. at a heating rate of 20 K/min (kelvin per minute) and then heating to 150° C. at a heating rate of 1 K/min.
Oxidation was determined over one peak using DSC (differential scanning calorimetry).
The time in minutes until oxidation was measured in each case.

Row | Structure (SMILES) | Time until onset of oxidation (oxidation induction time) at 150° C. | Time until onset of oxidation (oxidation induction time) at 165° C. | Time until onset of oxidation (oxidation induction time) at 180° C.
1 | CC(C)CC(C)Nc1ccc(Nc2ccccc2)cc1 (stereo not drawn) [Formula 6PPD, N-(1,3-dimethylbutyl)-N′-phenyl-p-phenylenediamine] | >900 min | 356 ± 10 min | 116 ± 10 min
2 | CC(C)CC(C)Nc1ccc2c(c1)C(=O)Nc1ccccc1N2 (stereo not drawn) [Formula III), 2-(1,3-dimethylbutylamino)-5,10-dihydro-dibenzo[b,e][1,4]diazepin-11-one] | >900 min | 459 ± 10 min | 169 ± 10 min
